Laboratory results as given in patent US20210062263A1, “A CLINICAL […]” (priority 2016, published 2021).

Tests used:
[1] = test system: follistatin; experiment: Serum follistatin levels (RIA) in wounded male mice; type: in vivo
Protocol: (§1) Implants were prepared by cutting medical grade Silastic (polydimethylsiloxane) tubing (1.5 mm inner diameter, 2.3 mm outer diameter, Aunet Pty Ltd, WA, Australia) to the desired length (1 cm long) and sealing one end with Multi-Purpose Sealant (Dow Corning RTV Sealant). After 24 hours each tube was packed with either crystalline testosterone (Sigma #T-1500) or left empty (vehicle implant). The open end was then sealed and implants were allowed to dry for at least 24 hours prior to surgical implantation. The implant size was considered to be the length of tubing containing testosterone. Prior to subcutaneous insertion, implants were sterilized in absolute ethanol for 10 minutes which also removed any androgen adhering to its external surface. Each testosterone or vehicle implant was inserted subcutaneously via a 5-mm nape incision in intact and castrated male mice three weeks before the wound healing experiments and the incision site was closed with 5/0 sutures.
(§2) Under anesthesia, the dorsal flanks of each 9 weeks old mouse (n=6/group) were carefully shaved and cleansed with 70% v/v ethanol. To create wounds, full-thickness, parasagittal linear incisions (1 cm long) were made through the skin and underlying the panniculus carnosus muscle on each flank and each wound was closed using two 5/0 silk sutures placed 3 mm from each end of the wound. Post operatively, all animals received analgesia to minimize pain, were allowed to recover on a heated pad and then housed in groups of four animals per cage. Incisions were examined and assessed on days 3, 5, 7 and post-wounding.
Blood samples were collected between 10:00 and 10:30 am by cardiac puncture at different time points (0d, 3d, 5d, 7d or 14d) according to the experimental protocol. The samples were allowed to coagulate for 30 minutes then centrifuged at 10,000 g for 10 minutes to collect serum which was stored at −20° C. until assayed.
Serum and skin follistatin levels were measured by RIA using human recombinant follistatin 288 as standard and as tracer following labeling with I^125 (O'Conner et al. (1999) Hum Reprod 14(3):827-832). The assay sensitivity for serum follistatin was 1.52 ng/ml, and the intra-assay variation was 5.4-5.7%.

[2] = test system: dorsal skin wound; experiment: Histopathological measurements of skin wounds; type: in vivo, mice
Protocol: as §1, §2
(§3) Following exsanguination, anesthetized animals were killed by cervical dislocation. Full-thickness specimens of the skin wound, consisting of the entire wound scar surrounded by a border of about 3-mm, were excized and bisected. Half of each sample was frozen at −80° C. and the other half was fixed in 4% v/v paraformaldehyde (Sigma-Aldrich, NSW, Australia) and processed for histology. Unwounded skin was obtained from the dorsum of the trunk near the tail of each animal to determine protein levels.
Transverse histological sections (5 μm) of skin from the center of each wound were stained with hematoxylin and eosin (H&E) [Harris' Hematoxylin, 1% v/v Eosin, Amber Scientific, Midvale, Wash., Australia] and analyzed by light microscopy. All histological analyses were performed blind without knowledge of the identity of each specimen. Histological sections were scanned for assessment using Aperio ScanScope AT Turbo Scanner (Aperio, CA, USA) and the electronic slides (eSlides) were visualized and analyzed using Aperio ImageScope.
Wound width was calculated by measuring the distance between the unwounded dermis margins at the epidermis-dermis junction (Gilliver et al. (2008) endocrinology 149(11):5747-5757). When the width was <0.2 mm, the wound was considered closed. Reepithelialization was assessed using the following scoring method: 0, absent; 1, present, covering <50% of the wound; 2, present, covering >50% and <100% of the wound; 3, present, covering 100% with irregular thickness; 4, present, covering 100% with regular thickness (Steed et al. (1997) 77(3):575-586). To determine epidermal hyperplasia, the mean distance between the stratum granulosum and the epidermal-dermal junction of each wound site was calculated (10 measurements per section, using a 10× objective). Unwounded skin was used as control.
Sections from day 7 and day 14 wounds were also stained with Masson's trichrome to highlight connective tissue. The area of granulation tissue was measured by defining the area located between the basal surface of the epidermis and the panniculus carnosus below. Collagen orientation was assessed using the following scoring method: 1, basket-weave fibers; 2, basket-weave >parallel fibers; 3, parallel fibers >basket-weave fibers; 4, parallel fibers (Ashcroft and Mills (2002) J Clin Invest 110(5):615-624).

[3] = test system: follistatin; experiment: Cutaneous follistatin levels (RIA) after wounding; type: in vivo, mice
Text: as §2
as §3, with “levels. […]” for “levels.”
Serum and skin follistatin levels were measured by RIA using human recombinant follistatin 288 as standard and as tracer following labeling with I^125 (O'Conner et al. (1999) Hum Reprod 14(3):827-832). […]

[4] = test system: CD45+ cells; experiment: Immunohistochemical analysis of leukocyte infiltration (CD45+ cells); type: in vivo, mice
Text: CD45, also known as leukocyte common antigen (LCA), was used to detect infiltrating leukocytes as a marker of inflammation (Hermiston et al. (2003) Annul Rev Immunol 21:107-137). Five micron thick sections were cut and placed on Menzel-Glaser Polysine (Registered Trade Mark) slides (Thermo Scientific), air-dried and stored at room temperature. Slides were stained using an automated system (DAKO Autostainer Plus), at room temperature; sections were rehydrated and antigen retrieved with the Dako buffers citrate pH6.1. Slides were peroxidase-blocked in 3% v/v hydrogen peroxide (H2O2) in methanol for 10 mins. They were then blocked with CAS-Block (Invitrogen, CA, USA) for 10 minutes, and then incubated with primary antibody (CD45 biotinylated rat anti-mouse antibody, 1:200) for 20 min. Vectastain ABC kit (Vector Labs, Burlingame, Calif.) was subsequently applied for 30 minutes and further colorimetric detection was completed with diaminobenzidine (DAB) for 5 minutes. Sections were counterstained with haematoxylin and slides coverslipped under DePeX.
Leukocyte infiltration was assessed by calculating the average number of CD45+ cells in four random high-power fields (HPF) per tissue section from each group. Data presented reflect the mean total cell count per field from the wound area at days 3 and 5 post-wounding.

C[C@]12CC[C@H]3[C@@H](CCC4=CC(=O)CC[C@@]43C)[C@@H]1CC[C@@H]2O [testosterone]
Serum Follistatin ([1]; Castrated + T males, 0 d): 4.3 ± 0.5 ng/mL
Serum Follistatin ([1]; Castrated + T males, 3 d): 4.1 ± 0.3 ng/mL
Serum Follistatin ([1]; Castrated + T males, 5 d): 3.9 ± 0.2 ng/mL
Serum Follistatin ([1]; Castrated + T males, 7 d): 4.5 ± 0.3 ng/mL
Serum Follistatin ([1]; Castrated + T males, 14 d): 4.5 ± 0.5 ng/mL
Serum Follistatin ([1]; Intact + T males, 0 d): 3.6 ± 0.03 ng/mL
Serum Follistatin ([1]; Intact + T males, 3 d): 3.8 ± 0.3 ng/mL
Serum Follistatin ([1]; Intact + T males, 5 d): 3.8 ± 0.1 ng/mL
Serum Follistatin ([1]; Intact + T males, 7 d): 3.8 ± 0.4 ng/mL
Serum Follistatin ([1]; Intact + T males, 14 d): 3.6 ± 0.2 ng/mL
collagen fiber orientation ([2]; castrated males treated with testosterone, day 14 post-wounding): predominant parallel orientation
wound width ([2]; castrated males, testosterone replacement vs castrated group, days 3 and 5 post-wounding): significantly increased wound widths
re-epithelialization ([2]; castrated+T group, day 5 post-wounding): re-epithelialization was complete
epidermal thickness ([2]; castrated+T group, days 3, 5 and 7 post-wounding): increased thickness of the epidermis
wound width ([2]; intact males treated with testosterone vs intact group, day 3 post-wounding): decreased wound width
wound closure (summary) ([2]; male mice): delayed wound closure
follistatin levels in skin ([3]; castrated testosterone replacement group vs vehicle group, day 3 post-wounding): significantly higher
follistatin levels in skin ([3]; intact males given testosterone vs intact males that received vehicle): significantly lower
number of CD45+ cells ([4]; castrated group with testosterone replaced vs castrated group, days 3 and 5 post-wounding): significantly increased
leukocyte migration and infiltration to the wound site (summary) ([4]; male mice): increased migration and infiltration of leukocytes
